Assay results as given in ChEMBL document CHEMBL1201862, “PubChem BioAssay data set” (2004).
Activity calls are given as the source filed them.

How the values were obtained:
[1] = system: Escherichia coli; experiment: microbe, parasite or virus in culture
[2] = target: Hexokinase-1 (Homo sapiens, UniProt P19367); experiment: HK1 enzyme inhibition by HKDC1 hits, SAR follow-up, selectivity assay for HKDC1 inhibitor project, biochemical, set 2, resazurin fluorescence coupled readout (AID 588356); type: functional
Hexokinase-1, sequence (P19367 whole entry): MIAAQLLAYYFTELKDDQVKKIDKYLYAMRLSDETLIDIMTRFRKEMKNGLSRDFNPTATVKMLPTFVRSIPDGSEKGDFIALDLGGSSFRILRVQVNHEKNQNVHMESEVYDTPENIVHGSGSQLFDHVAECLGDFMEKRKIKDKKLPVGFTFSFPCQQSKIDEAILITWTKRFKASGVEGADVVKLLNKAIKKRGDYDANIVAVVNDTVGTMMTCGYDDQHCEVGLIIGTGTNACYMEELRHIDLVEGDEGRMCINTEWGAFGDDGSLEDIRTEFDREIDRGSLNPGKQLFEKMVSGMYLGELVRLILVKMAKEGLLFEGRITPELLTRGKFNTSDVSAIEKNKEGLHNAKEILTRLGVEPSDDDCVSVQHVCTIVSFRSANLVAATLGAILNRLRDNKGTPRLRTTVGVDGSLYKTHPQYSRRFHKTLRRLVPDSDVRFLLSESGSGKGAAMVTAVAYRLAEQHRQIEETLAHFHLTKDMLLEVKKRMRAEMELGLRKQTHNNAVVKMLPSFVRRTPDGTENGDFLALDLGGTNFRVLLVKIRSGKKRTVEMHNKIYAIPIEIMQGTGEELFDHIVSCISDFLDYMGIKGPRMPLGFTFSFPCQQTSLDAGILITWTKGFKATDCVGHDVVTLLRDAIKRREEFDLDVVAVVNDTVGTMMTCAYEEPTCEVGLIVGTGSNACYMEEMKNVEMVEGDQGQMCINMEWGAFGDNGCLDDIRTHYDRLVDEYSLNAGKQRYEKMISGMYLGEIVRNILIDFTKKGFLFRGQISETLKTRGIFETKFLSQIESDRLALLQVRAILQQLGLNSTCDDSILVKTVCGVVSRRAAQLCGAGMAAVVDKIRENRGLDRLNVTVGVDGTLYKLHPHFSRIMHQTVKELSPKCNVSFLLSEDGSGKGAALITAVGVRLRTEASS

[3] = target: T1, Hexokinase HKDC1 (Homo sapiens, UniProt Q2TB90); experiment: HKDC1 hexokinase inhibitors, SAR follow-up, biochemical, set 2 (AID 588355); type: functional
T1 sequence (Q2TB90 whole entry): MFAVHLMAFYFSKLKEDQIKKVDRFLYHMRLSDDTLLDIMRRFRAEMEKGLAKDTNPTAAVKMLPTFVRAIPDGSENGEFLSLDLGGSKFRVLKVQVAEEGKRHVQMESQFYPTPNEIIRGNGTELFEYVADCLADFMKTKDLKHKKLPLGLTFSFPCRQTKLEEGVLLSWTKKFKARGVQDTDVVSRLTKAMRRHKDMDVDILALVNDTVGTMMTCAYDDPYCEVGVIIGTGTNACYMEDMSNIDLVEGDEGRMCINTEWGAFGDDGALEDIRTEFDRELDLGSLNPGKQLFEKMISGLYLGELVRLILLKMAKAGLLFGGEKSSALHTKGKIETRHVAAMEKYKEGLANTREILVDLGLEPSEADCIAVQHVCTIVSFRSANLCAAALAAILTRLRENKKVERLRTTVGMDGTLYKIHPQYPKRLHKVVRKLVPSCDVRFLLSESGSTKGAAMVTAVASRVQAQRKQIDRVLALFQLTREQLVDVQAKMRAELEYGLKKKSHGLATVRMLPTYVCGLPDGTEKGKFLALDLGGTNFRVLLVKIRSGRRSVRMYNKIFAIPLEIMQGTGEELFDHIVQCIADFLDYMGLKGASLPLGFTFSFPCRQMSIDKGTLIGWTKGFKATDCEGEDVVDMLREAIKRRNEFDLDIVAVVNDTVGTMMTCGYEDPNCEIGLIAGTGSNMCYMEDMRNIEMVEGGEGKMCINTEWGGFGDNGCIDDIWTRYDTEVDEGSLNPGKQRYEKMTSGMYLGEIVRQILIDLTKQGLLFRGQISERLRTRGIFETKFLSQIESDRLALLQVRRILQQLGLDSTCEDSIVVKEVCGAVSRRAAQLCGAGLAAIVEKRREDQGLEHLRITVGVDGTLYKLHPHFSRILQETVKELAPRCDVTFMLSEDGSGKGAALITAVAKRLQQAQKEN

[4] = target: T2, Replicative DNA helicase DnaB (Mycobacterium tuberculosis, UniProt P9WMR3); experiment: DnaB intein splicing inhibitors, dose response, biochemical, cell-free fluorescence (AID 449749); type: functional
T2 sequence (P9WMR3 whole entry): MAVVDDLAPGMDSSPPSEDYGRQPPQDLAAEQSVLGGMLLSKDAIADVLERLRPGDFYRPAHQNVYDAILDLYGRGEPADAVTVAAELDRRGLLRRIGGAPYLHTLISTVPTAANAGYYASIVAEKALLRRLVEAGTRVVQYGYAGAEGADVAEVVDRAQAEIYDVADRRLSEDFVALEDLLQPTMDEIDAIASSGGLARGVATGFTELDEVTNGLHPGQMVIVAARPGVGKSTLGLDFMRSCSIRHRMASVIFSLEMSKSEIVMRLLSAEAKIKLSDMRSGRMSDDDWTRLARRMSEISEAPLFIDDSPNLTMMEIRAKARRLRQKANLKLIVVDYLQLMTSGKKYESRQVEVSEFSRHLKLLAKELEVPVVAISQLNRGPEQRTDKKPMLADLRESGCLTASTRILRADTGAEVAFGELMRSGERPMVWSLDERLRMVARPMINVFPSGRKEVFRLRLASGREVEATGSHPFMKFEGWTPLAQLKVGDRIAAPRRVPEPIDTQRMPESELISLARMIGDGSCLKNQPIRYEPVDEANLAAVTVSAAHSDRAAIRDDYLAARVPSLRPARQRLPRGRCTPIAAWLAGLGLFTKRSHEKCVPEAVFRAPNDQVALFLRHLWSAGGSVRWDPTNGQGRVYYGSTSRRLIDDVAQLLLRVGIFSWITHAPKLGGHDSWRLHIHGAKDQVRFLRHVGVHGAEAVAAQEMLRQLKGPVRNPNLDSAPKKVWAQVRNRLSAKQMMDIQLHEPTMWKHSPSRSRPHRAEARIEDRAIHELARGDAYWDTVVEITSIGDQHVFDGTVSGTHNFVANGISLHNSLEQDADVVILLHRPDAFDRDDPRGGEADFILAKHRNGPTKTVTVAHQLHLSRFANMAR

[5] = target: T3, Protein RecA (Mycobacterium tuberculosis, UniProt P9WHJ3); experiment: Fluorescence Cell-Free Homogeneous Dose Retest to Identify Inhibitors of RecA-Intein Splicing Activity. [Related pubchem assays (depositor defined):AID2097, AID2223, AID489010, AID492950]; type: functional
T3 sequence (P9WHJ3 whole entry): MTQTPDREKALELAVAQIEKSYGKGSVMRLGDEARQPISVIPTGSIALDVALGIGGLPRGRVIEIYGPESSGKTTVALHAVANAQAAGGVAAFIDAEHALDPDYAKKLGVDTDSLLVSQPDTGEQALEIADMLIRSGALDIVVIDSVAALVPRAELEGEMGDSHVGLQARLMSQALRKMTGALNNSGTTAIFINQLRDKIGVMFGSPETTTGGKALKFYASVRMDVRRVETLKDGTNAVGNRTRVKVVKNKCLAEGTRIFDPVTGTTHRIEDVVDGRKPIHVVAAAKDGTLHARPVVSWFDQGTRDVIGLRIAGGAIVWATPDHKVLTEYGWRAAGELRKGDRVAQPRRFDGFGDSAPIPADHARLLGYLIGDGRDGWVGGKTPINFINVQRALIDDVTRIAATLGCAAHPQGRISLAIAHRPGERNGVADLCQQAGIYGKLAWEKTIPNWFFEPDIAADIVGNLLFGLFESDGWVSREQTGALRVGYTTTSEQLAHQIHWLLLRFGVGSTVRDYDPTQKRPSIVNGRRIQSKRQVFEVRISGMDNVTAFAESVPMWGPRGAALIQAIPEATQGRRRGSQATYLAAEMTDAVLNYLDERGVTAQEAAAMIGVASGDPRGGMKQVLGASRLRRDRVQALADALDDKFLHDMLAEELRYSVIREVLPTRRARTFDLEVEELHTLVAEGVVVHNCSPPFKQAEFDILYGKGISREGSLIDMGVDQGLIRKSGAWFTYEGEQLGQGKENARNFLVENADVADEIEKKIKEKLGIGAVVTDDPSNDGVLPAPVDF

[6] = target: Keap1/Nrf2 (Homo sapiens, UniProt Q14145); experiment: Keap1-Nrf2 protein-protein interaction inhibitors, dose response, biochemical, fluorescence polarization, cherry-picked samples (AID 588683)
Keap1/Nrf2, sequence (Q16236 whole entry): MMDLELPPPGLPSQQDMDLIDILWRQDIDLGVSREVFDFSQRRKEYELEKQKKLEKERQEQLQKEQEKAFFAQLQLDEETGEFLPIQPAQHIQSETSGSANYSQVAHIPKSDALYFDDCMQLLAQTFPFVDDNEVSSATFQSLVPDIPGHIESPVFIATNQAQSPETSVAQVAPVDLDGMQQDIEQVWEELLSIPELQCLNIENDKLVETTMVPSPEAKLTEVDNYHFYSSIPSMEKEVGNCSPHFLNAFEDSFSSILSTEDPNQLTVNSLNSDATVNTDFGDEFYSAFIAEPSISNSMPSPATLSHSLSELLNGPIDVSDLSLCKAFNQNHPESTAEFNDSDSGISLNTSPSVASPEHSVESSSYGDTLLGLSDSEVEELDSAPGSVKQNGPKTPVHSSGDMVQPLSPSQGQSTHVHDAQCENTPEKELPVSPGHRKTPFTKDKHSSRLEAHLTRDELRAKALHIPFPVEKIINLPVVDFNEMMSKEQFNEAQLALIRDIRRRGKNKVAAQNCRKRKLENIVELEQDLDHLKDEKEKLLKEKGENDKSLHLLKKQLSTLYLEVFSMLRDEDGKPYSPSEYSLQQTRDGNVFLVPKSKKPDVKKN
Keap1/Nrf2, sequence (Q14145 whole entry): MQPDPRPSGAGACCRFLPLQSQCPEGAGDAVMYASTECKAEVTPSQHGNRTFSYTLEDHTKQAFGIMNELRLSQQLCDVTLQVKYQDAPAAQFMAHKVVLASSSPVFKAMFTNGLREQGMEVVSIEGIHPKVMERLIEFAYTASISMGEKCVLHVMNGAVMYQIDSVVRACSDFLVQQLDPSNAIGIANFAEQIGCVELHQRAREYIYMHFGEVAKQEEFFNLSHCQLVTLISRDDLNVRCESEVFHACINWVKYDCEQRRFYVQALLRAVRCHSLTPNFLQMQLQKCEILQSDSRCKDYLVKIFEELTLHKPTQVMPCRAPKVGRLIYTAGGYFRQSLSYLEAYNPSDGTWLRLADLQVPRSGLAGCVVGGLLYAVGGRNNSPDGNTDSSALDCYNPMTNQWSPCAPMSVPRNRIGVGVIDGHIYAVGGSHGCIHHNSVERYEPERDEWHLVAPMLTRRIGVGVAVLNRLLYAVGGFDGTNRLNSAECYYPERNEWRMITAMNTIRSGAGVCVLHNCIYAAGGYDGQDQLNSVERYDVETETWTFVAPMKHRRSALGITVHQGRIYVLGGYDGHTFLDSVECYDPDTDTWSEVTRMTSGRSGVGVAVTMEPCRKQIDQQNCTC

[7] = system: Vero; experiment: Vero cell cytotoxicity, cytotoxicity control for flavivirus capping enzyme inhibitors (AID 588742); type: functional; settings: Chlorocebus sabaeus
[8] = target: Genome polyprotein (dengue virus type 2, UniProt P29990); experiment: Dengue-2 NS5 methyltransferase inhibitors, primary screen, biochemical, confirmation dose response (AID 588689); type: functional
Genome polyprotein, sequence (P29990 2492-3391 limits assumed): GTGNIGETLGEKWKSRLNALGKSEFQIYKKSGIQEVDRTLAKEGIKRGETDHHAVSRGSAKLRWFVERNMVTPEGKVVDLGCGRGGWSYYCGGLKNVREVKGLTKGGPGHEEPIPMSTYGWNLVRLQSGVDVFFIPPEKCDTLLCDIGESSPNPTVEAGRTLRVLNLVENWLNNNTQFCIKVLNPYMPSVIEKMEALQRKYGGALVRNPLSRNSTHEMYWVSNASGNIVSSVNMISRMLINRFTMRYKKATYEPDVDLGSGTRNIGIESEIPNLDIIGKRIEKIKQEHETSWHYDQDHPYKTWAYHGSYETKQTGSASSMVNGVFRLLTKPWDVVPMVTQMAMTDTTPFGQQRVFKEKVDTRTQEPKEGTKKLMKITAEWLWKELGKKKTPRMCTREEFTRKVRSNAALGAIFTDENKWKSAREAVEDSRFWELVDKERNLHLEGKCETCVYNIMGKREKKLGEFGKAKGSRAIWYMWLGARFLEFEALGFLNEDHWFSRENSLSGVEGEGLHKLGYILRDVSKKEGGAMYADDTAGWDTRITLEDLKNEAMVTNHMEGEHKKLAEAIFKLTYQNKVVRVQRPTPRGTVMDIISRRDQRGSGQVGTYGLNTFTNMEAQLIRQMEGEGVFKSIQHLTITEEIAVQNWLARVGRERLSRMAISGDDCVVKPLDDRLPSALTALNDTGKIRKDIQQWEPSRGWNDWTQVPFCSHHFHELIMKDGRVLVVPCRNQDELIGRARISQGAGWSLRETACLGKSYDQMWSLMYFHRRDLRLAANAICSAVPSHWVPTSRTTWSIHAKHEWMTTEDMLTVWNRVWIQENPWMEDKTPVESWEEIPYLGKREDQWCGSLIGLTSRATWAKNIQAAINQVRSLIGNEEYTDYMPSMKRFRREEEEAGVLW

Structure (SMILES): CCCC(C(=O)NNC(=O)c1cc(C)oc1C)c1ccccc1 (stereo not drawn)
- AC50 [1]: 31.7 µM (active)

Structure (SMILES): Cc1ccccc1NC1c2ccccc2C(=O)N1c1ccccc1C (stereo not drawn)
- IC50 [2]: > 80 µM (inactive)
- IC50 [3]: > 80 µM (inactive)

Structure (SMILES): O=C1/C(=N\S(=O)(=O)c2ccc([N+](=O)[O-])cc2)C(Cl)=C(O)c2ccccc21
- AC50 [4]: 6.49 µM (active)
- EC50 [5]: 1.26 µM (active)
- AC50 [6]: > 52 µM (inactive)
- CC50 [7]: 34.2 µM (active)
- IC50 [8]: 76.9 µM (active)
